The source of these data is PubChem BioAssay AID248 (DTP/NCI, 2004).

The test system of the test is L1210 leukemia ip in BDF1 mice, survival T/C. Briefly: NCI In Vivo Anticancer Drug Screen. Data for tumor model L1210 Leukemia (intraperitoneal) in B6D2F1 (BDF1) mice. Conditions: endpoint: mean survival time, higher = longer survival. In outline:
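Ratio derived from survival: compound-dosed mice over vehicle-dosed mice, all bearing a transplantable tumor.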

The mark [1] stands for this setting: dose: 50.0 mg/kg/injection, schedule: Q01DX009 (ip), vehicle: saline.
Setting [2] is: dose: 100.0 mg/kg/injection, schedule: Q01DX001 (ip), vehicle: carboxymethylcellulose (CMC).
Setting [3] is: dose: 200.0 mg/kg/injection, schedule: Q01DX001 (ip), vehicle: carboxymethylcellulose (CMC).
The mark [4] stands for this setting: dose: 100.0 mg/kg/injection, schedule: Q01DX009 (ip), vehicle: saline.
Where [5] appears, read: dose: 200.0 mg/kg/injection, schedule: Q01DX009 (ip), vehicle: saline.
Where [6] appears, read: dose: 400.0 mg/kg/injection, schedule: Q01DX009 (ip), vehicle: saline.
Where [7] appears, read: dose: 100.0 mg/kg/injection, schedule: Q04DX003 (ip), vehicle: saline.
The mark [8] stands for this setting: dose: 200.0 mg/kg/injection, schedule: Q04DX003 (ip), vehicle: saline.
The mark [9] stands for this setting: dose: 400.0 mg/kg/injection, schedule: Q04DX003 (ip), vehicle: saline.
Where [10] appears, read: dose: 400.0 mg/kg/injection, schedule: Q01DX001 (ip), vehicle: saline.
Where [11] appears, read: dose: 100.0 mg/kg/injection, schedule: Q01DX001 (ip), vehicle: saline.
Setting [12] is: dose: 200.0 mg/kg/injection, schedule: Q01DX001 (ip), vehicle: saline.
Where [13] appears, read: dose: 100.0 mg/kg/injection, schedule: Q01DX009 (ip), vehicle: Klucel (hydroxypropylcellulose) (HPC).
The mark [14] stands for this setting: dose: 200.0 mg/kg/injection, schedule: Q01DX009 (ip), vehicle: Klucel (hydroxypropylcellulose) (HPC).
The mark [15] stands for this setting: dose: 400.0 mg/kg/injection, schedule: Q01DX009 (ip), vehicle: Klucel (hydroxypropylcellulose) (HPC).

Where “and” joins values, the source holds several entries; their conditions need not be identical. Equal values may be shown once. Toxic doses and inconclusive results are not listed.

`Nc1nncs1`: the T/C reads like this: (dose: 3.75 mg/kg/injection, schedule: Q01DX015 (ip), vehicle: saline) 103 % of control; (dose: 7.0 mg/kg/injection, schedule: Q03HX032 (ip), vehicle: saline) 107 % of control; (dose: 7.5 mg/kg/injection, schedule: Q01DX015 (ip), vehicle: saline) 106 % of control; (dose: 7.5 mg/kg/injection, schedule: Q01DX Z (ip), vehicle: carboxymethylcellulose (CMC)) 96 % of control; (dose: 11.0 mg/kg/injection, schedule: Q03HX032 (ip), vehicle: saline) 119 % of control; (dose: 12.5 mg/kg/injection, schedule: Q01DX009 (ip), vehicle: saline) 120 % of control. The T/C was 109 % of control (dose: 15.0 mg/kg/injection, schedule: Q01DX015 (ip), vehicle: saline); 114 % of control (dose: 15.0 mg/kg/injection, schedule: Q01DX Z (ip), vehicle: carboxymethylcellulose (CMC)); 108 % of control (dose: 16.0 mg/kg/injection, schedule: Q03HX032 (ip), vehicle: saline); 116 % of control (dose: 20.0 mg/kg/injection, schedule: Q01DX Z (ip), vehicle: carboxymethylcellulose (CMC)); 124 % of control (dose: 24.0 mg/kg/injection, schedule: Q03HX032 (ip), vehicle: saline); 106 % of control (dose: 25.0 mg/kg/injection, schedule: Q01DX009 (ip), vehicle: saline). Besides, the T/C (dose: 25.0 mg/kg/injection, schedule: Q01DX Z (ip), vehicle: carboxymethylcellulose (CMC)) was 112 % of control; the T/C (dose: 27.0 mg/kg/injection, schedule: Q01DX015 (ip), vehicle: saline) is 123 % of control; the T/C (dose: 32.0 mg/kg/injection, schedule: Q01DX009 (ip), vehicle: Klucel (hydroxypropylcellulose) (HPC)) is 151 % of control; the T/C (dose: 36.0 mg/kg/injection, schedule: Q03HX032 (ip), vehicle: saline) is 156 % of control; the T/C under setting [1] was 95 % of control; the T/C (dose: 60.0 mg/kg/injection, schedule: Q01DX015 (ip), vehicle: saline) is 151 % of control and 165 % of control and 166 % of control. The T/C is 94 % of control and 112 % of control (dose: 64.0 mg/kg/injection, schedule: Q01DX009 (ip), vehicle: Klucel (hydroxypropylcellulose) (HPC)); 168 % of control (dose: 90.0 mg/kg/injection, schedule: Q01DX015 (ip), vehicle: saline); 171 % of control (dose: 120.0 mg/kg/injection, schedule: Q01DX015 (ip), vehicle: saline); 88 % of control and 90 % of control (dose: 128.0 mg/kg/injection, schedule: Q01DX009 (ip), vehicle: Klucel (hydroxypropylcellulose) (HPC)); 151 % of control (dose: 135.0 mg/kg/injection, schedule: Q01DX015 (ip), vehicle: saline); 116 % of control (dose: 240.0 mg/kg/injection, schedule: Q01DX015 (ip), vehicle: saline). Also, the T/C reads like this: (dose: 270.0 mg/kg/injection, schedule: Q01DX001 (ip), vehicle: saline) 120 % of control; (dose: 480.0 mg/kg/injection, schedule: Q01DX015 (ip), vehicle: saline) 107 % of control; (dose: 500.0 mg/kg/injection, schedule: Q04DX003 (ip), vehicle: saline) 100 % of control; (dose: 600.0 mg/kg/injection, schedule: Q01DX001 (ip), vehicle: saline) 124 % of control; (dose: 1000.0 mg/kg/injection, schedule: Q04DX003 (ip), vehicle: saline) 163 % of control.
With `O=C(N/N=C\c1ccccc1O)c1ccco1`, the T/C by setting is: under setting [2], 98 % of control; under setting [3], 95 % of control; (dose: 400.0 mg/kg/injection, schedule: Q01DX001 (ip), vehicle: carboxymethylcellulose (CMC)) 95 % of control.
Regarding `Cn1cnccc1=O`, the T/C runs as follows: (dose: 50.0 mg/kg/injection, schedule: Q01DX009 (ip), vehicle: water) 102 % of control; (dose: 100.0 mg/kg/injection, schedule: Q01DX009 (ip), vehicle: water) 104 % of control; (dose: 100.0 mg/kg/injection, schedule: Q04DX003 (ip), vehicle: water) 114 % of control; (dose: 120.0 mg/kg/injection, schedule: Q04DX003 (ip), vehicle: water) 98 % of control; (dose: 200.0 mg/kg/injection, schedule: Q01DX009 (ip), vehicle: water) 115 % of control; (dose: 200.0 mg/kg/injection, schedule: Q04DX003 (ip), vehicle: water) 100 % of control and 111 % of control. Moreover, the T/C (dose: 333.0 mg/kg/injection, schedule: Q04DX003 (ip), vehicle: water) is 95 % of control; the T/C (dose: 400.0 mg/kg/injection, schedule: Q01DX009 (ip), vehicle: water) is 115 % of control; the T/C (dose: 400.0 mg/kg/injection, schedule: Q04DX003 (ip), vehicle: water) is 106 % of control.
`COc1ccc(C(=O)CCC(=O)O)c(C)c1`: the T/C under setting [4] was 97 % of control, the T/C under setting [5] was 101 % of control and the T/C under setting [6] is 105 % of control.
On to `CCc1c(C)nc(N)[nH]c1=O`, for which the T/C reads like this: (dose: 100.0 mg/kg/injection, schedule: Q04DX003 (ip), vehicle: saline with Tween-80) 106 % of control; (dose: 200.0 mg/kg/injection, schedule: Q04DX003 (ip), vehicle: saline with Tween-80) 106 % of control.
Consider `CC(C)(CCC(C)(C)NCCC#N)NCCC#N`, for which the T/C is 104 % of control under setting [1]; 104 % of control under setting [4]; 105 % of control under setting [7]; 105 % of control under setting [5]; 103 % of control under setting [8]; 101 % of control under setting [6]. Further, the T/C under setting [9] was 95 % of control.
In the case of `CCCCCCCCCCCCn1ncc2ccc([N+](=O)[O-])cc21`, under setting [10], the T/C was 96 % of control.
In the case of `CC(C)CC(B1OCCO1)(C1CCCCC1)C1CCCCC1`, the T/C runs as follows: (dose: 100.0 mg/kg/injection, schedule: Q01DX009 (ip), vehicle: saline with Tween-80) 107 % of control; (dose: 100.0 mg/kg/injection, schedule: Q04DX003 (ip), vehicle: other) 105 % of control; (dose: 200.0 mg/kg/injection, schedule: Q01DX009 (ip), vehicle: saline with Tween-80) 93 % of control; (dose: 200.0 mg/kg/injection, schedule: Q04DX003 (ip), vehicle: other) 104 % of control; (dose: 400.0 mg/kg/injection, schedule: Q04DX003 (ip), vehicle: other) 110 % of control.
On to `CCOC(Nc1ccc([N+](=O)[O-])cc1)C(=O)c1ccccc1` (centres undefined), for which the T/C by setting is: under setting [11], 93 % of control; under setting [12], 97 % of control; under setting [10], 100 % of control.
For the compound `O=C1N=C(c2ccccc2)OC1C(=O)c1ccccc1` (centres undefined), the T/C was 110 % of control under setting [11] and 94 % of control under setting [12].
For `CC1S(=O)(=O)CCS1(=O)=O`, the T/C reads like this: (dose: 75.0 mg/kg/injection, schedule: Q01DX001 (ip), vehicle: saline with Tween-80) 100 % of control; (dose: 150.0 mg/kg/injection, schedule: Q01DX001 (ip), vehicle: saline with Tween-80) 100 % of control; (dose: 300.0 mg/kg/injection, schedule: Q01DX001 (ip), vehicle: saline with Tween-80) 103 % of control.
Regarding `Nc1c(Cl)ncnc1NC1CCC(CO)C1` (centres undefined), the T/C was 103 % of control under setting [2] and 106 % of control under setting [3].
With `CC(C)(CCC#N)C1OCCO1`, the T/C under setting [4] was 106 % of control; the T/C under setting [7] was 98 % of control; the T/C under setting [5] was 102 % of control; the T/C under setting [8] is 105 % of control; the T/C under setting [6] is 102 % of control; the T/C under setting [9] was 96 % of control.
With `O=C(COc1cc(Cl)c(Cl)cc1Cl)Nc1cccc(O)c1`, the T/C runs as follows: under setting [13], 101 % of control; under setting [14], 96 % of control; under setting [15], 115 % of control.
In the case of `COc1ccc2c(c1)c(=O)c(C(=O)O)cn2CCCOc1ccc([N+](=O)[O-])cc1`, the T/C under setting [13] is 96 % of control; the T/C under setting [7] is 107 % of control; the T/C under setting [14] was 106 % of control; the T/C under setting [8] was 100 % of control; the T/C under setting [15] is 93 % of control; the T/C under setting [9] was 94 % of control.
